Read-outs that look alike come from different tables or passages of the source.

Broadly, the AUC(0-t) is exposure summed from dosing to a finite time, without extrapolation to infinity. Usually AUC(0-inf) stands for the area under the concentration-time curve extrapolated to infinity. As usually defined, the half-life is how long it takes for the measured level to halve. One may read the Cmax as the peak of the concentration-time curve. One may read the Tmax as the time from dosing to the highest level. As a reminder, the bioavailability is dose-corrected exposure relative to a reference, in per cent. Usually IC50 stands for the concentration that inhibits the measured activity by half.

A short description of series [1]: Pharmacokinetics after intravenous and oral treatment, plasma LC-MS/MS. The format is in vivo, male Han Wistar rats. Particulars: rat, 5 mg/kg; for AUC(0-inf): extrapolated to infinity. The method, then:
The pharmacokinetics of compounds E7, E17 and E18, were studied in male Han Wistar rats. The rats were treated intravenously and orally (n=3 for each dose route) with compounds formulated as solutions. The rats were fitted with a jugular cannula for serial sampling. A full profile was acquired from each rat. Plasma extracts were quantitatively analyzed using a specific and sensitive LC-MS/MS bioanalytical method. Inter-individual variations between the three rats in each group were limited (CV for pharmacokinetic parameters was below 50%). […] A range of clearance values were obtained for the different structure, ranging from low to moderate values (from 43 to 250 ml/h). After oral administration, absorption was quite fast with a clear maximum concentration reached by the first sampling time-point of 15 minutes for all compounds.

Series [2] has as its target T1, hEP4 receptors (Homo sapiens, UniProt P35408).
T1 construct: membrane fraction used
In words: [3H]-Prostaglandin E2 membrane binding assay. On the procedure: (§1) The cDNA clone of human EP4 receptor (NM_000958.2) was obtained from InvitrogenTM: Ultimate™ ORF Clone Collection - Clone ID IOH46525. The coding sequence was subcloned in expression vector pcDNATM6.2/V5-DEST by Gateway technology (InvitrogenTM). Human embryonic kidney cells (HEK-293) were stably transfected with expression vector for human EP4 receptor in according to the method described in FuGENE®6 Transfection Reagent's manual (Roche Applied Science®).
(§2) The EP4 transfected cells were grown in Dulbecco's modified Eagle's medium containing 10% fetal bovine serum and 10 µg/ml Blasticidin S HCl (selection medium) at 37°C in a humidified atmosphere of 5% CO2 in air. For the membrane preparation, cells in flask were harvested by hypotonical/mechanical lysis with chilled (4°C) TE buffer (5mM TRIS, 5mM ethylenediamine tetra-acetic acid (EDTA), pH 7.4). Cells were detached and lysed with 10ml of hypotonic lysis buffer and by scraping. The cell lysate was vortexed for 30 sec and centrifuged at 40000x g at 4°C for 22min.
The membrane pellet was resuspended in the same buffer (5mM TRIS, 5mM ethylenediamine tetra-acetic acid (EDTA), pH 7.4), and protein concentration was determined by Bradford method (Bio-Bad® assay). This membrane preparation was stored at -80°C freezer until use for binding assay. ([^3H]-PGE2) membranes binding assays toward hEP4 receptors (human EP4/HEK293 transfectant, see above) and hEP2 receptors (human EP2/HEK293 transfectant, purchased from PerkinElmer Inc) were performed in 10 mM MES-KOH buffer pH6, containing 10 mM MgCl2 and 1 mM CaCl2 for EP4 binding assay or 50 mM Tris-Cl, BSA 0.5% for EP2 binding assay (according to supplier indication) . Ten microgram of protein from membrane fractions were incubated in a total volume of 0.1ml (EP4) or 0.2ml (EP2) with 1nM (EP4) or 3nM (EP2) [^3H]-PGE2 (PerkinElmer Inc, 171Ci/mmol). In both assays to determine the total binding or non specific binding, 1% DMSO or 1µM prostaglandin E2 (EP4) or 100 µM (EP2) were added to reaction mixtures, respectively. Incubation was conducted in a polypropylene 96 multiwell for 90 min (EP4) or 60 min (EP2) at room temperature prior to separation of the bound and free radioligand by vacuum manifold rapid filtration on glass fiber filters (Unifilter GFB96, PerkinElmer Inc) pre-soaked in 0.3% polyethyleneimine. Filters were washed with ice cold buffer pH 7.4 (50mM HEPES, NaCl 500mM, BSA 0.1% for EP4 binding assay or 50mM Tris-Cl for EP2 binding assays) and the residual [^3H]-PGE2 binding determined by solid scintillation counter (TopCount , PerkinElmer Inc).
The affinity (Ki) of each compound was calculated according to the Cheng-Prousoff equation: Ki = IC50/(1+([C]/Kd)). Results were expressed as pKi (- log10 Ki (M)

Series [3] deals with T1, hEP4 receptors. Kind of series: cAMP assay (AlphaScreen) on human EP4 membrane of transfected cells, antagonism of PGE2. Particulars: HEK293 cell membrane stimulated with PGE2 3nM; read-out: functional IC50. It is filed as biochemical. The method, then:
as §1, §2
The assay is based on the competition between endogenous cAMP and exogenously added biotinylated cAMP. The capture of cAMP is achieved by using a specific antibody conjugated to Donor beads. Cell membranes prepared as described above, were resuspended in 1 ml stimulation buffer (HBSS 1X + BSA 0.1% + IBMX 0.5mM + HEPES 5mM + MgCl2 10mM + GTP 1 nM + GDP 10µM + ATP 100µM - pH 7.4). Cell membranes were dispensed into white 384-well microplates at final concentration of 1µg/well and used for the determination of cAMP with the alphascreen cAMP functional assay (EnVision - PerkinElmer). Cell membrane/anti-cAMP Acceptor beads mix (5 µl) and a mixture of analysed compounds (dissolved in 100% DMSO to a final maximal concentration of 0.01% DMSO)/PGE2 (5 µl) were incubated at room temperature (22-23°C) for 30 min in the dark. The Biotinylated-cAMP and donor beads (15 µl) were dispensed into each well to start the competition reaction. After 1 h incubation RT (22-23°C) in the dark the plate was read using EnVision platform to determine the cAMP level (excitation: 680nm; emission:520,620nm). In each experiment:
cAMP standard curve (concentration range from 1x10-6 to 1x10-11 M in log intervals) with a negative control (no cAMP)
a positive control: forskolin 10µM
Antagonism studies were performed stimulating HEK293 cell membrane with PGE2 3nM. The AlphaScreen signal is plotted as a function of log concentration of cAMP and functional IC50 is determined. IC50 value is calculated by linear regression.
(In general: Cyclic AMP is a second messenger, typically raised through Gs and lowered through Gi signalling.)

Setting [4] is: read-out: Binding pKi (converted).
[5] abbreviates: human EP4/HEK293 transfectant membranes, 1nM [3H]-PGE2, Ki from IC50 by Cheng-Prousoff, pKi = -log10 Ki (M).

T1 sequence (P35408 whole entry): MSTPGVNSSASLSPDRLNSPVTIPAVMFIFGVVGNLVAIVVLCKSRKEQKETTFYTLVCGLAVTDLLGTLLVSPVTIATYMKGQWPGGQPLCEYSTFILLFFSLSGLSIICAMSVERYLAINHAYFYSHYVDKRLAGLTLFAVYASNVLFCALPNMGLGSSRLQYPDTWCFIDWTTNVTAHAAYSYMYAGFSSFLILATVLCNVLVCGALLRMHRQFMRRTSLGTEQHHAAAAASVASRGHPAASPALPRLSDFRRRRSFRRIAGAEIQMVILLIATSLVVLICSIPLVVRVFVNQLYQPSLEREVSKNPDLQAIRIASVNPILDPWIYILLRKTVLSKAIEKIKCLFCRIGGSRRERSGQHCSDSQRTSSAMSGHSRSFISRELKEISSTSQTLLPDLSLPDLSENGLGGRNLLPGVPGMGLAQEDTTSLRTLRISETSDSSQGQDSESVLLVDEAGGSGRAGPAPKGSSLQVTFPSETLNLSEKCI

Regarding `O=C(O)c1ccc(C2(NC(=O)C3CC4(CCN3Cc3ccc(C(F)(F)F)cc3)CC4)CC2)cc1` (single isomer, unassigned) [Example E7, 4-(1-(6-(4-(trifluoromethyl)benzyl)-6-azaspiro[2.5]octane-5-carboxamido)cyclopropyl)benzoic acid], the AUC(0-t) in series [1] (male, Han Wistar, plasma, iv) worked out at 29200 ng·h/mL; in series [1] (male, Han Wistar, plasma, po) it was 22900 ng·h/mL. The area under the curve AUC(0-inf) is 31800 ng·h/mL in series [1] (male, Han Wistar, plasma, iv) and 24900 ng·h/mL in series [1] (male, Han Wistar, plasma, po). The half-life in series [1] (male, Han Wistar, plasma, iv, extrapolated, indicative only) is 444 min; in series [1] (male, Han Wistar, plasma, po, extrapolated, indicative only), 402 min. Further, the clearance in series [1] (male, Han Wistar, plasma, iv, extrapolated, indicative only, read-out: CLp* (converted)) is 0.717 mL/min. In series [1] (male, Han Wistar, plasma, iv, extrapolated, indicative only, read-out: Vss*), the Vd was 0.395 L. Further, the peak level in series [1] (male, Han Wistar, plasma, po) (Cmax) was 5330 ng/mL. Further, the Tmax in series [1] (male, Han Wistar, plasma, po) turned out to be 30 min. The same compound registered a bioavailability in series [1] (male, Han Wistar, plasma, po, absolute oral bioavailability) of 78%. Besides, the “Tlast” value in series [1] (iv) and in series [1] (po) was 24 h each time. At hEP4 receptors [2] (setting [4]), the Ki is 3.16e-08 M. Besides, the IC50 on hEP4 receptors [3] came out at 22 nM.
Regarding `O=C(O)c1ccc(C2(NC(=O)C3CC4(CCN3Cc3cccc(C(F)(F)F)c3)CC4)CC2)cc1` (single isomer, unassigned) [Example E9, 4-(1-(6-(3-(trifluoromethyl)benzyl)-6-azaspiro[2.5]octane-5-carboxamido)cyclopropyl)benzoic acid], the Ki at hEP4 receptors [2] (setting [5]) was 6.31e-09 M. Besides, at hEP4 receptors [3], the IC50 was determined as 4 nM.
Consider `C[C@H](NC(=O)C1CC2(CCN1Cc1ccc(C(F)(F)F)cc1)CC2)c1ccc(C(=O)O)cc1` (single isomer, unassigned) [Example E10], for which the Ki on hEP4 receptors [2] (setting [4]) was 3.98e-08 M. Also, the IC50 on hEP4 receptors [3] came to 29 nM.
Consider `C[C@H](NC(=O)C1CC(C)(C)CCN1Cc1ccc(C(F)(F)F)cc1)c1ccc(C(=O)O)cc1` (single isomer, unassigned) [Example E13], for which the Ki at hEP4 receptors [2] (setting [5]) is 1.26e-08 M. The IC50 at hEP4 receptors [3] is 8 nM.
As for `O=C(O)c1ccc(C2(NC(=O)C3CC4CC4CN3Cc3ccc(C(F)(F)F)cc3)CC2)cc1` (single isomer, unassigned) [Example E23, 4-(1-(3-(4-(trifluoromethyl)benzyl)-3-azabicyclo[4.1.0]heptane-4-carboxamido)cyclopropyl)benzoic acid], the Ki on hEP4 receptors [2] (setting [4]) is 1e-08 M. For the same compound, on hEP4 receptors [3], the IC50 came to 11.5 nM.
Take `O=C(O)c1ccc(C2(NC(=O)[C@H]3CCCCN3Cc3ccc(C(F)(F)F)cc3)CC2)cc1` [Example E4, lithium (R)-4-(1-(1-(4-(trifluoromethyl)benzyl)piperidine-2-carboxamido)cyclopropyl)benzoate]: at hEP4 receptors [3], the IC50 was 32 nM.
On hEP4 receptors [2] (setting [5]), `C[C@H](NC(=O)[C@H]1CC(F)(F)CCN1Cc1ccc(C(F)(F)F)cc1)c1ccc(C(=O)O)cc1` [Example E16, 4-((S)-1-((R)-4,4-difluoro-1-(4-(trifluoromethyl)benzyl)piperidine-2-carboxamido)ethyl)benzoic acid] had a Ki of 2e-08 M. Also, on hEP4 receptors [3], the IC50 came to 9 nM.
As to `O=C(O)c1ccc(C2(NC(=O)[C@H]3CCC4CC4N3Cc3ccc(C(F)(F)F)cc3)CC2)cc1` (stereo partly drawn) [Example E25, 4-(1-((3R)-2-(4-(trifluoromethyl)benzyl)-2-azabicyclo[4.1.0]heptane-3-carboxamido)cyclopropyl)benzoic acid], the Ki at hEP4 receptors [2] (setting [4]) was 3.16e-09 M. The IC50 at hEP4 receptors [3] is 43 nM.
The corresponding values for `C[C@H](NC(=O)[C@H]1CCC2CC2N1Cc1ccc(C(F)(F)F)cc1)c1ccc(C(=O)O)cc1` (stereo partly drawn) [Example E26, 4-((1S)-1-((3R)-2-(4-(trifluoromethyl)benzyl)-2-azabicyclo[4.1.0]heptane-3-carboxamido)ethyl)benzoic acid] are 1.58e-09 M and 42 nM.
As to `C[C@H](NC(=O)[C@H]1CCCN1Cc1ccc(C(F)(F)F)cc1)c1ccc(C(=O)O)cc1` [Example E27, lithium 4-((S)-1-((R)-1-(4-(trifluoromethyl)benzyl)pyrrolidine-2-carboxamido)ethyl)benzoate], the IC50 on hEP4 receptors [3] is 50 nM.
Turning to `O=C(O)c1ccc(C2(NC(=O)[C@H]3C[C@H]4C[C@H]4N3Cc3cccc(C(F)(F)F)c3)CC2)cc1` [Example E29, 4-(1-((1R,3R,5R)-2-(3-(trifluoromethyl)benzyl)-2-azabicyclo[3.1.0]hexane-3-carboxamido)cyclopropyl)benzoic acid], the Ki on hEP4 receptors [2] (setting [4]) is 2.51e-09 M. In addition, the IC50 at hEP4 receptors [3] came out at 16 nM.
`O=C(O)c1ccc(C2(NC(=O)[C@H]3C[C@H]4C[C@H]4N3Cc3ccc(C(F)(F)F)cc3)CC2)cc1` [Example E30, 4-(1-((1R,3R,5R)-2-(4-(trifluoromethyl)benzyl)-2-azabicyclo[3.1.0]hexane-3-carboxamido)cyclopropyl)benzoic acid]: the Ki on hEP4 receptors [2] (setting [5]) was 5.01e-09 M. Also, the IC50 on hEP4 receptors [3] was 21 nM.

These data come from patent publication EP2729445B1, “CYCLIC AMINE DERIVATIVES AS EP4 RECEPTOR ANTAGONISTS” (Rottapharm Biotech S.r.l., priority 2011, dated 2013).
